Tests used:
Test in all cases: Protein kinase inhibition assay
Type in all cases: biochemical
[1] = target: PKBβ(h) (Homo sapiens, UniProt P31751); details: read-out: percent residual activity of PKBβ(h)
Experimental: (§1) Certain compounds were tested for activity in protein kinase inhibition assays. All substrates were dissolved and diluted to working stocks in de-ionized water, apart from histone H1 (10× working stock in 20 mM MOPS pH 7.0), PDKtide (10× working stock in 50 mM Tris pH 7.0) ATF2 (which is typically stored at a 20× working stock in 50 mM Tris pH 7.5, 150 mM NaCl, 0.1 mM EGTA, 0.03% Brij-35, 50% glycerol, 1 mM benzamidine, 0.2 mM PMSF and 0.1% R-mercaptoethanol), KKLNRTLSFAEPG (SEQ ID NO:203) and RRRLSFAEPG (SEQ ID NO:204) (50 mM HEPES pH 7.4) and GGEEEEYFELVKKKK (SEQ ID NO:205) (20 mM MOPS pH 7.0). All kinases were pre-diluted to a 10× working concentration prior to addition into the assay. The composition of the dilution buffer for each kinase is detailed below.
(§2) In a final reaction volume of 25 μl, PKBβ (h) (5-10 mU) is incubated with 8 mM MOPS pH 7.0, 0.2 mM EDTA, 30 μM GRPRTSSFAEGKK (SEQ ID NO:232), 10 mM MgAcetate and [gamma-33P-ATP] (specific activity approx. 500 cpm/pmol, concentration as required). The reaction is initiated by the addition of the MgATP mix. After incubation for 40 minutes at room temperature, the reaction is stopped by the addition of 5 μl of a 3% phosphoric acid solution. 10 μl of the reaction is then spotted onto a P30 filtermat and washed three times for 5 minutes in 75 mM phosphoric acid and once in methanol prior to drying and scintillation counting.

[2] = target: SGK2(h) (Homo sapiens, UniProt Q9HBY8); details: read-out: percent residual activity of SGK2(h)
SGK2(h), sequence (Q9HBY8 whole entry): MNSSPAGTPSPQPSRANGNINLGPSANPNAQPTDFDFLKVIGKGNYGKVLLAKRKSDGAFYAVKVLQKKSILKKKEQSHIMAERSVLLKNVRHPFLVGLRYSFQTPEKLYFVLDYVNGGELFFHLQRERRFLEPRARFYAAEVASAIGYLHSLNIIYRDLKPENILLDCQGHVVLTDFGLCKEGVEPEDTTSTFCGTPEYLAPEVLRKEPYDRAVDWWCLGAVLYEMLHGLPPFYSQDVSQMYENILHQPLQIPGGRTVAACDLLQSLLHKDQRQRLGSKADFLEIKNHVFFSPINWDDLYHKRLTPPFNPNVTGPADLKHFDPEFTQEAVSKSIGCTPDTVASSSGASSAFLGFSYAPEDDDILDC
Experimental: as §1
as §2, with “SGK2” for “PKBβ”, “NO:226),” for “NO:232),”

[3] = target: IKKβ(h) (Homo sapiens, UniProt O14920); details: read-out: percent residual activity of IKKβ(h)
IKKβ(h), sequence (O14920 whole entry): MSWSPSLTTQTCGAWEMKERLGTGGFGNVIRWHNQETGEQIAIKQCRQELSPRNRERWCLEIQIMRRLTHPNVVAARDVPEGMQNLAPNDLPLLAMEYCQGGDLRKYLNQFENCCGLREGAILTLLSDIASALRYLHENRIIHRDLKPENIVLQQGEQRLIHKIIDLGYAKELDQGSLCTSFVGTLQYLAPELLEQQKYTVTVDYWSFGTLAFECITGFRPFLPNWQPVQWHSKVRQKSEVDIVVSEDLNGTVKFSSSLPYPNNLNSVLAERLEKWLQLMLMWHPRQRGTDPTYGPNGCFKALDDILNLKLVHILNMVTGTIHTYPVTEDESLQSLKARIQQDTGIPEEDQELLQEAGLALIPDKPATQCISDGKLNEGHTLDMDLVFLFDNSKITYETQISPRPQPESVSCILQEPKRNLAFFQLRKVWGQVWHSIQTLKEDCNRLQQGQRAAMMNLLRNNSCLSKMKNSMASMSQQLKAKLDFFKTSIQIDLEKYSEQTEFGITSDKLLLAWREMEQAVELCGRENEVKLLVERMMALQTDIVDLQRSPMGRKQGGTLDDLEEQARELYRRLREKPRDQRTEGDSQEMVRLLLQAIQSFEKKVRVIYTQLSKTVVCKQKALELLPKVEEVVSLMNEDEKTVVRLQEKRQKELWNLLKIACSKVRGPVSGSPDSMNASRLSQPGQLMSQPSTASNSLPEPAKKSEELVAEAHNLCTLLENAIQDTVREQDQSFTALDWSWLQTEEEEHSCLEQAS
Experimental: as §1
as §2, with “μl, IKKβ” for “μl, PKBβ”, “EDTA, 100” for “EDTA, 30”, “μM peptide,” for “μM GRPRTSSFAEGKK (SEQ ID NO:232),”

[4] = target: CK1δ(h) (Homo sapiens, UniProt P48730); details: read-out: percent residual activity of CK1δ(h)
CK1δ(h), sequence (P48730 whole entry): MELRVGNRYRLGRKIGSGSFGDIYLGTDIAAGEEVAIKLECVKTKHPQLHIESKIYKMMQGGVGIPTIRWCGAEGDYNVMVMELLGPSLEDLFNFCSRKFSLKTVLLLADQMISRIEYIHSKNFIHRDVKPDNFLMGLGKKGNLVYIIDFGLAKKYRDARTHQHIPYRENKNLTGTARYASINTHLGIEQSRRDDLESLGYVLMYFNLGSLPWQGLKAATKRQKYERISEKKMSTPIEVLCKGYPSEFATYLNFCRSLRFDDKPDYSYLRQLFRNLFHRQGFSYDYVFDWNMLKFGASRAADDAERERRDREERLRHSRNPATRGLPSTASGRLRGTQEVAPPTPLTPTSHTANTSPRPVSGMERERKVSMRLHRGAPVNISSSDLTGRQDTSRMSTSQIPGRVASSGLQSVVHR
Experimental: as §1
as §2, with “μl, CK1δ” for “μl, PKBβ”, “EDTA, 200” for “EDTA, 30”, “μM KRRRALS(p)VASLPGL” for “μM GRPRTSSFAEGKK”, “ID NO:214),” for “ID NO:232),”

[5] = target: BTK(h) (Homo sapiens, UniProt Q06187); details: read-out: percent residual activity of BTK(h)
BTK(h), sequence (Q06187 whole entry): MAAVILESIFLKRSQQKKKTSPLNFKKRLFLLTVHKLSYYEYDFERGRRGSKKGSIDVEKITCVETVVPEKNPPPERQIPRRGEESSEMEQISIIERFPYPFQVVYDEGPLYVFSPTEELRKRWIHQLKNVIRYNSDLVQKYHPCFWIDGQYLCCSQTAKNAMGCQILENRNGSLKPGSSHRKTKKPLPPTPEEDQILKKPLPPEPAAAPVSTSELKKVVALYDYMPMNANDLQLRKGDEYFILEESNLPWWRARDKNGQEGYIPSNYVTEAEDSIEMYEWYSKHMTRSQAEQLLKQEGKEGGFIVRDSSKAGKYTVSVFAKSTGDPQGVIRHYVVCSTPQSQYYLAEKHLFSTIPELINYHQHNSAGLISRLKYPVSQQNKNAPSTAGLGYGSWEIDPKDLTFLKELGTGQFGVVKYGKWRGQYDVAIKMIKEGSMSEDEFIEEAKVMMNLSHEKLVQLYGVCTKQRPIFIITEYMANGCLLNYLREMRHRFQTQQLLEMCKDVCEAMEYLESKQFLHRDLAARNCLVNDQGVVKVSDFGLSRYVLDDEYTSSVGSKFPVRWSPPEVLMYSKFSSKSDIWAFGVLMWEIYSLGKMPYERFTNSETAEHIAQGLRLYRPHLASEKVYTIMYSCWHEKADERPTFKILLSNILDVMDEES
Experimental: as §1
In a final reaction volume of 25 μl, BTK (h) (5-10 mU) is incubated with 8 mM MOPS pH 7.0, 0.2 mM EDTA, 250 μM KVEKIGEGTYGVVYK (SEQ ID NO:211) (Cdc2 peptide), 10 mM MgAcetate and [gamma-33P-ATP] (specific activity approx. 500 cpm/pmol, concentration as required). The reaction is initiated by the addition of the MgATP mix. After incubation for 40 minutes at room temperature, the reaction is stopped by the addition of 5 μl of a 3% phosphoric acid solution. […]

[6] = target: ZIPK(h) (Homo sapiens, UniProt O43293); details: read-out: percent residual activity of ZIPK(h)
ZIPK(h), sequence (O43293 whole entry): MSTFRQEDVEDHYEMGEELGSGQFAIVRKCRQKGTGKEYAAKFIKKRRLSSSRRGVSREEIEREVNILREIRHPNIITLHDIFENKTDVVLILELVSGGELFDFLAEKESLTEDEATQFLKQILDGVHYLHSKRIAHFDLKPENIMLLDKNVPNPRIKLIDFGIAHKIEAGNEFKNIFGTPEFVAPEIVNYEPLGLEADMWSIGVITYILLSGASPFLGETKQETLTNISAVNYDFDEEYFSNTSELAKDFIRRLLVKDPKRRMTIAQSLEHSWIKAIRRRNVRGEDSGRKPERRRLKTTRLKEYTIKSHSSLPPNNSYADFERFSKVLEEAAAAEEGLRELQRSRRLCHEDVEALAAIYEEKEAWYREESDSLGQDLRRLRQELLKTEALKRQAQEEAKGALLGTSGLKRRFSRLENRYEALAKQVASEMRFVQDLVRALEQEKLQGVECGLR
Experimental: as §1
as §2, with “μl, ZIPK” for “μl, PKBβ”, “EDTA, 250” for “EDTA, 30”, “μM KKLNRTLSFAEPG” for “μM GRPRTSSFAEGKK”, “ID NO:203),” for “ID NO:232),”

PKBβ(h), sequence (P31751 whole entry): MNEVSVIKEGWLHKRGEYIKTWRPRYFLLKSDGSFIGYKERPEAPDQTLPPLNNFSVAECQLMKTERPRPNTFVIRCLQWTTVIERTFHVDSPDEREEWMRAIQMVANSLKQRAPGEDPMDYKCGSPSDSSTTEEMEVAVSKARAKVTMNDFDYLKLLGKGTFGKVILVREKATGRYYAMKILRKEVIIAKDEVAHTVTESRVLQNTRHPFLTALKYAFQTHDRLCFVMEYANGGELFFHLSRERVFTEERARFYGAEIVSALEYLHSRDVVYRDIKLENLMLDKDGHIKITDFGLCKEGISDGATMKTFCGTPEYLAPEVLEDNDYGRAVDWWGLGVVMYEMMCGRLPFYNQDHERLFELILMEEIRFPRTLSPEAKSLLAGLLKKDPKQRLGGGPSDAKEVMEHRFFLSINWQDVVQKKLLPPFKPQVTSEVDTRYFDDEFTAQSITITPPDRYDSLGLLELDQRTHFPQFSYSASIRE

remaining activity at 2.5 µM [1]	remaining activity at 2.5 µM [2]	remaining activity at 2.5 µM [3]	remaining activity at 2.5 µM [4]	remaining activity at 2.5 µM [5]	remaining activity at 2.5 µM [6]	SMILES
106%	104%	105%	92%	101%	116%	CC(=O)N1CCN(c2ccc3c(=O)c(C(=O)NCCN4CCCC4)c4n(C)c5ccccc5n4c3n2)CC1 [Compound B-1]
48%	38%	56%	87%	60%	27%	CN1CCCC1CCNC(=O)c1cn2c3c(c(N4CCC(c5cnccn5)C4)c(F)cc3c1=O)Oc1cc3ccccc3cc1-2 (stereo not drawn) [Compound A-1]
